Experimental data published in patent US10865216B2, “Tricyclic Gyrase inhibitors” (MERCK SHARP & DOHME CORP., priority 2012, dated 2020).
Converted amounts (≈) assume the structure as drawn.

These compounds were tested on S. aureus ATCC 13709 (assay: MIC, S. aureus ATCC 13709). Details: Staphylococcus aureus, ATCC13709, S. aureus; Alamar Blue read after overnight incubation at 35° C.; read-out: MIC Sa.
Format: cell-based
`CNc1cccc2c1[nH]c1nc(Oc3cnc(N4CCOCC4)nc3)cc(N3CC4C(N)C4C3)c12` (centres unmarked) [Compound 3.26] gave an MIC of over 16 µg/mL. Compound `CNc1cccc2c1[nH]c1nc(Oc3cnc(C)nc3)cc(N3CC4C(C3)C4NCCC#N)c12` (centres unmarked) [Compound 3.11] has an MIC of at most 0.5 µg/mL. For `CNc1cc(F)cc2c1[nH]c1nc(Oc3cnc(C)nc3)nc(-c3ccc(F)cc3CN)c12` [Compound 4.445], the MIC was 2 µg/mL (≈ 4.47 µM). Work on `CNc1cccc2c1[nH]c1nc(Sc3cnc4cccnc4c3)nc(N3CCC(CN)C3)c12` (centres unmarked) [Compound 1.48] yielded an MIC of at most 0.5 µg/mL. Compound `CNc1cccc2c1[nH]c1nc(Oc3cncnc3)cc(N3CC(N)C(O)C3)c12` (centres unmarked) [Compound 3.8] has an MIC of 16 µg/mL (≈ 40.9 µM). `CNc1cccc2c1[nH]c1nc(Sc3cnc4cccnc4c3)nc(N3CCN(c4cnccn4)CC3)c12` [Compound 1.54] gave an MIC of at most 0.5 µg/mL. For `Cc1ncc(Oc2nc(N3C[C@H](N)C4(CC4)C3)c3c(n2)[nH]c2c(N(C)C(=O)CN)cc(F)cc23)cn1` [Compound 4.426], the MIC was 8 µg/mL (≈ 16.3 µM). In the case of `CNc1cccc2c1[nH]c1nc(Sc3cnc4ccc[n+]([O-])c4c3)nc(N3CC(CNC(=O)c4cn(C)nc4C(F)(F)F)C3)c12` [Compound 1.21], the MIC is reported as at most 0.5 µg/mL. `CNc1cccc2c1[nH]c1nc(Sc3cnc4cccnc4c3)nc(N3CCN(C(=O)C4CCCO4)CC3)c12` (centres unmarked) [Compound 1.69] showed an MIC of at most 0.5 µg/mL. `CNc1cccc2c1[nH]c1nc(Sc3cnc4ccc[n+]([O-])c4c3)nc(N3CC(C4(N)CC4)C3)c12` [Compound 1.33] gave an MIC of at most 0.5 µg/mL. In the case of `CNc1cccc2c1[nH]c1nc(Sc3cncnc3)nc(N3CC(N)C4(CC4)C3)c12` (centres unmarked) [Compound 1.44], the MIC is reported as 1 µg/mL (≈ 2.39 µM).

Same assay, conditions: Staphylococcus aureus, ATCC13709, Table 16; new R4 substituents; read-out: SA MIC
Work on `CCC1(CN)CCN(c2nc(Oc3cnc(C)nc3)nc3[nH]c4c(NC)cc(F)cc4c23)C1` (centres unmarked) yielded an MIC of at most 0.5 µg/mL. For `CNc1cc(F)cc2c1[nH]c1nc(Oc3cnc(C)nc3)nc(-c3ccc(C4(N)CC4)cc3)c12`, the MIC was at most 0.5 µg/mL. `CNc1cc(F)cc2c1[nH]c1nc(Oc3cnc(C)nc3)nc(C3=CCNC3)c12` was tested, and the MIC was at most 0.5 µg/mL.

Same assay, conditions: Table 11; compounds wherein L = CH2
In the case of `CNc1cc(F)cc2c1[nH]c1nc(Cc3cnc(C)nc3)nc(N3CC[C@@]4(C[C@H]4N)C3)c12`, the SA MIC is reported as at most 0.5 µg/mL.

Same assay, conditions: Table 18, Sa
`CNc1cc(F)cc2c1[nH]c1nc(Oc3cnc4ccnn4c3)nc(N3CC4(CCC4N)C3)c12` (centres unmarked) [Compound 10.56] gave an MIC Sa of at most 0.5 µg/mL. Work on `CNc1cc(F)cc2c1[nH]c1nc(Oc3cnc(C)nc3)nc(N3C[C@H]4C[C@@H]3C[C@H]4NCCO)c12` [Compound 10.114] yielded an MIC Sa of at most 0.5 µg/mL. `CNc1cc(F)cc2c1[nH]c1nc(Oc3cnc(C)nc3)nc(N3CCC(N)(CCC#N)C3)c12` (centres unmarked) [Compound 10.75] was tested, and the MIC Sa was at most 0.5 µg/mL. In the case of `CNc1cc(F)c(Br)c2c1[nH]c1nc(Oc3cnc(C)nc3)nc(N3C[C@H]4C[C@@H]3C[C@H]4N)c12` [Compound 10.68], the MIC Sa is reported as at most 0.5 µg/mL. Work on `CNc1cc(F)c(F)c2c1[nH]c1nc(Oc3cnc(C)nc3)nc(N3CCOCC3)c12` [Compound 10.107] yielded an MIC Sa of at most 0.5 µg/mL. `CNc1cc(F)c(F)c2c1[nH]c1nc(Oc3cnc(C(C)O)nc3)nc(N3CC4(CC[C@]4(C)N)C3)c12` (some centres unmarked) [Compound 10.81] showed an MIC Sa of at most 0.5 µg/mL. Work on `CNc1cc(F)cc2c1[nH]c1nc(Oc3ccn4ccnc4c3)nc(N3C[C@H]4C[C@@H]3C[C@H]4N)c12` [Compound 10.22] yielded an MIC Sa of at most 0.5 µg/mL.

Each compound was assayed on E. coli ATCC 25922 (assay: MIC, E. coli ATCC 25922). Details: Escherichia coli, ATCC25922, E. coli; Alamar Blue read after overnight incubation at 35° C.; read-out: MIC Ec.
Format: cell-based
`CNc1cccc2c1[nH]c1nc(Oc3cnc(N4CCOCC4)nc3)cc(N3CC4C(N)C4C3)c12` (centres unmarked) [Compound 3.26] showed an MIC of over 16 µg/mL. Work on `CNc1cccc2c1[nH]c1nc(Oc3cnc(C)nc3)cc(N3CC4C(C3)C4NCCC#N)c12` (centres unmarked) [Compound 3.11] yielded an MIC of 2 µg/mL (≈ 4.4 µM). Compound `CNc1cc(F)cc2c1[nH]c1nc(Oc3cnc(C)nc3)nc(-c3ccc(F)cc3CN)c12` [Compound 4.445] has an MIC of over 16 µg/mL. `CNc1cccc2c1[nH]c1nc(Sc3cnc4cccnc4c3)nc(N3CCC(CN)C3)c12` (centres unmarked) [Compound 1.48] gave an MIC of 2 µg/mL (≈ 4.38 µM). For `CNc1cccc2c1[nH]c1nc(Oc3cncnc3)cc(N3CC(N)C(O)C3)c12` (centres unmarked) [Compound 3.8], the MIC was over 64 µg/mL. Compound `CNc1cccc2c1[nH]c1nc(Sc3cnc4cccnc4c3)nc(N3CCN(c4cnccn4)CC3)c12` [Compound 1.54] has an MIC of over 64 µg/mL. `Cc1ncc(Oc2nc(N3C[C@H](N)C4(CC4)C3)c3c(n2)[nH]c2c(N(C)C(=O)CN)cc(F)cc23)cn1` [Compound 4.426] was tested, and the MIC was over 16 µg/mL. With `CNc1cccc2c1[nH]c1nc(Sc3cnc4ccc[n+]([O-])c4c3)nc(N3CC(CNC(=O)c4cn(C)nc4C(F)(F)F)C3)c12` [Compound 1.21] the MIC was over 64 µg/mL. In the case of `CNc1cccc2c1[nH]c1nc(Sc3cnc4cccnc4c3)nc(N3CCN(C(=O)C4CCCO4)CC3)c12` (centres unmarked) [Compound 1.69], the MIC is reported as 8 µg/mL (≈ 14.8 µM). In the case of `CNc1cccc2c1[nH]c1nc(Sc3cnc4ccc[n+]([O-])c4c3)nc(N3CC(C4(N)CC4)C3)c12` [Compound 1.33], the MIC is reported as 4 µg/mL (≈ 8.25 µM). `CNc1cccc2c1[nH]c1nc(Sc3cncnc3)nc(N3CC(N)C4(CC4)C3)c12` (centres unmarked) [Compound 1.44] showed an MIC of 2 µg/mL (≈ 4.78 µM).

Same assay, conditions: Escherichia coli, ATCC25922, Table 16; new R4 substituents; EC8 not defined; read-out: EC8 MIC
For `CCC1(CN)CCN(c2nc(Oc3cnc(C)nc3)nc3[nH]c4c(NC)cc(F)cc4c23)C1` (centres unmarked), the MIC was at most 0.5 µg/mL. With `CNc1cc(F)cc2c1[nH]c1nc(Oc3cnc(C)nc3)nc(-c3ccc(C4(N)CC4)cc3)c12` the MIC was 4 µg/mL (≈ 8.78 µM). `CNc1cc(F)cc2c1[nH]c1nc(Oc3cnc(C)nc3)nc(C3=CCNC3)c12` gave an MIC of 8 µg/mL (≈ 20.4 µM).

Same assay, conditions: Table 11; L = CH2; EC8 not defined
`CNc1cc(F)cc2c1[nH]c1nc(Cc3cnc(C)nc3)nc(N3CC[C@@]4(C[C@H]4N)C3)c12` was tested, and the EC8 MIC was 2 µg/mL.

Same assay, conditions: Table 18, Ec
`CNc1cc(F)cc2c1[nH]c1nc(Oc3cnc4ccnn4c3)nc(N3CC4(CCC4N)C3)c12` (centres unmarked) [Compound 10.56] was tested, and the MIC Ec was at most 0.5 µg/mL. With `CNc1cc(F)cc2c1[nH]c1nc(Oc3cnc(C)nc3)nc(N3C[C@H]4C[C@@H]3C[C@H]4NCCO)c12` [Compound 10.114] the MIC Ec was at most 0.5 µg/mL. In the case of `CNc1cc(F)cc2c1[nH]c1nc(Oc3cnc(C)nc3)nc(N3CCC(N)(CCC#N)C3)c12` (centres unmarked) [Compound 10.75], the MIC Ec is reported as 1 µg/mL (≈ 2.17 µM). Compound `CNc1cc(F)c(Br)c2c1[nH]c1nc(Oc3cnc(C)nc3)nc(N3C[C@H]4C[C@@H]3C[C@H]4N)c12` [Compound 10.68] has an MIC Ec of at most 0.5 µg/mL. `CNc1cc(F)c(F)c2c1[nH]c1nc(Oc3cnc(C)nc3)nc(N3CCOCC3)c12` [Compound 10.107] was tested, and the MIC Ec was at most 0.5 µg/mL. With `CNc1cc(F)c(F)c2c1[nH]c1nc(Oc3cnc(C(C)O)nc3)nc(N3CC4(CC[C@]4(C)N)C3)c12` (some centres unmarked) [Compound 10.81] the MIC Ec was 0.5 µg/mL (≈ 1.01 µM). In the case of `CNc1cc(F)cc2c1[nH]c1nc(Oc3ccn4ccnc4c3)nc(N3C[C@H]4C[C@@H]3C[C@H]4N)c12` [Compound 10.22], the MIC Ec is reported as at most 0.5 µg/mL.
